# Values quoted from earlier work as cited in US5087633A (G. D. Searle & Co., priority 1989, dated 1992).
# Settings: in vivo; cited from earlier work
smiles,measurement,value
CCCCCNCC(N)=O [milacemide],Increase of whole brain content of glycine,30%
